Test results as given in PMC7756656, “Discovery of Homobivalent Bitopic Ligands of the Cannabinoid CB2 Receptor” (Chemistry (Weinheim an Der Bergstrasse, Germany), 2020).

Tests used:
[1] = [3H]CP-55, […] competition binding, HEK-293T membranes; parameters: species or system Homo sapiens; details: read-out: CB1R Ki [μM]^[b]
CB1R (hCB1R) = biological target: T1, CB1R (hCB1R) (Homo sapiens, UniProt P21554); experiment: as above; details: read-out: CB1R Ki [μM]^[b]
T1 construct: gene CNR1; expressed in HEK-293T cells; membrane fractions

CB2R (hCB2R) [2] = biological target: T2, CB2R (hCB2R) (Homo sapiens, UniProt P34972, V36M); experiment: inhibition of forskolin-induced cAMP, HEK-293T cells; type: cell-based; details: read-out: Val36^1.35Met / pEC50 (converted)
T2 construct: gene CNR2; expressed in HEK-293T cells

CB2R (hCB2R) [3] = biological target: T3, CB2R (hCB2R) (Homo sapiens, UniProt P34972, A282M); experiment: as above; type: cell-based; details: read-out: Ala282^7.36Met / pEC50 (converted)
T3 construct: gene CNR2; expressed in HEK-293T cells

CB2R (hCB2R) [4] = biological target: T4, CB2R (hCB2R) (Homo sapiens, UniProt P34972); experiment: [3H]CP-55, […] competition binding, HEK-293T membranes; details: read-out: CB2R Ki [μM]^[b]
T4 construct: gene CNR2; expressed in HEK-293T cells

CB2R (hCB2R) [5] = biological target: T4, CB2R (hCB2R); experiment: inhibition of forskolin-induced cAMP, HEK-293T cells; type: cell-based; details: read-out: Wild type / pEC50 (converted)

T1 sequence (P21554 whole entry): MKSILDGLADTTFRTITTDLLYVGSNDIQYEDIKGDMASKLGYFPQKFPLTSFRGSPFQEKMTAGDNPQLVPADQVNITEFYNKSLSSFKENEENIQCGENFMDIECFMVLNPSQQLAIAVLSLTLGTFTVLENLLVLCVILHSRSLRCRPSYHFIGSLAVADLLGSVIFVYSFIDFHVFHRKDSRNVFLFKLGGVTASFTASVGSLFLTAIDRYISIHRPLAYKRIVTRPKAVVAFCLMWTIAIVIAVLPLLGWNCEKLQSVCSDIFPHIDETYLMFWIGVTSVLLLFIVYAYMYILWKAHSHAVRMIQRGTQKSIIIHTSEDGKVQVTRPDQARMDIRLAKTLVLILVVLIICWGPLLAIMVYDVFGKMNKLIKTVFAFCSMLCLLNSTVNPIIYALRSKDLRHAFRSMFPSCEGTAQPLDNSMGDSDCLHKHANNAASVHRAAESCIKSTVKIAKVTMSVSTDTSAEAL
T4 sequence (P34972 whole entry): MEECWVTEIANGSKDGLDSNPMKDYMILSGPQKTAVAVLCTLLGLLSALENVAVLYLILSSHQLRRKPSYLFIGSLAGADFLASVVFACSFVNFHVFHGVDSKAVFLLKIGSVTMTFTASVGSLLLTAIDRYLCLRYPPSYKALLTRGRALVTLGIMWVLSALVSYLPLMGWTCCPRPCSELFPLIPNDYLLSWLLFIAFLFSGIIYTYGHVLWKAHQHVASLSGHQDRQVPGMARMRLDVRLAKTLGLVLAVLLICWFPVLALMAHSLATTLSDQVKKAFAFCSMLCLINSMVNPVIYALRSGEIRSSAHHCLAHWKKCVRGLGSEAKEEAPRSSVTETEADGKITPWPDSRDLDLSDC
T2 sequence (P34972 whole entry V36M): as the sequence (P34972 whole entry) above, with V36M counted along it
T3 sequence (P34972 whole entry A282M): as the sequence (P34972 whole entry) above, with A282M counted along it

| Compound | Ki [1] [µM] | Ki (CB1R (hCB1R)) [µM] | EC50 (CB2R (hCB2R) [2]) [nM] | EC50 (CB2R (hCB2R) [3]) [nM] | Ki (CB2R (hCB2R) [4]) [µM] | EC50 (CB2R (hCB2R) [5]) [nM] |
| --- | --- | --- | --- | --- | --- | --- |
| CCCCCCC(C)(C)c1cc(OCCCCCCCCCCCCCCCCOc2cc(C(C)(C)CCCCCC)cc3c2-c2c(cnn2CC)C(C)(C)O3)c2c(c1)OC(C)(C)c1cnn(CC)c1-2 [compound 28, bivalent chromenopyrazole 28 (R1 = N1-Et, n = 14)] | > 40 | > 40 |  |  |  |  |
| CCCCCCC(C)(C)c1cc(OCCCCCCCCCCCCCCOc2cc(C(C)(C)CCCCCC)cc3c2-c2nn(CC)cc2C(C)(C)O3)c2c(c1)OC(C)(C)c1cn(CC)nc1-2 [compound 27] |  | > 40 | 79.4 | 50.1 | 0.3 ± 0.1 | 25.1 |
| CCCCCCC(C)(C)c1cc(OCCCCCCCCCCOc2cc(C(C)(C)CCCCCC)cc3c2-c2c(cnn2CC)C(C)(C)O3)c2c(c1)OC(C)(C)c1cnn(CC)c1-2 [compound 22, bivalent chromenopyrazole 22 (R1 = N1-Et, n = 8)] |  | > 40 | 20 | 63.1 | 0.9 ± 0.2 | 79.4 |
